Read-outs that look alike come from different tables or passages of the source.
Tests used:
HBV = experiment: Determination of HBV DNA from the supernatants of HepAD38 cells (anti-HBV activity); assay type: cell-based, hepatitis B virus; conditions: Hepatitis B virus, read-out: Cell Activity (EC50)
How it was run: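 HepAD38 cells (60,000/well) were treated with half-log compound dilutions in tetracycline-free medium to induce HBV production. On day 6, HBV DNA was purified from filtered supernatant and quantified by real-time PCR against plasmid standards. EC50 values came from non-linear regression of relative copy numbers, typically from three experiments in triplicate.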

HBV core protein = HBV core protein (UniProt P03146); assay type: biochemical; conditions: read-out: Assembly Activity (IC50); BODIPY-FL labelled core protein, assembly started with NaCl, read after 6 min
Procedure: Biochemical Capsid Assembly Assay
The screening for assembly effector activity was done based on a fluorescence quenching assay published by Zlotnick et al. (2007). The C-terminal truncated core protein containing 149 amino acids of the N-terminal assembly domain was fused to a unique cysteine residue at position 150 and was expressed in E. coli using the pET expression system (Merck Chemicals, Darmstadt). Purification of core dimer protein was performed using a sequence of size exclusion chromatography steps. In brief, the cell pellet from 1 L BL21 (DE3) Rosetta2 culture expressing the coding sequence of core protein cloned NdeI/XhoI into expression plasmid pET21b was treated for 1 h on ice with a native lysis buffer (Qproteome Bacterial Protein Prep Kit; Qiagen, Hilden). After a centrifugation step the supernatant was precipitated during 2 h stirring on ice with 0.23 g/ml of solid ammonium sulfate. Following further centrifugation the resulting pellet was resolved in buffer A (100 mM Tris, pH 7.5; 100 mM NaCl; 2 mM DTT) and was subsequently loaded onto a buffer A equilibrated CaptoCore 700 column (GE HealthCare, Frankfurt). The column flow through containing the assembled HBV capsid was dialyzed against buffer N (50 mM NaHCO3 pH 9.6; 5 mM DTT) before urea was added to a final concentration of 3M to dissociate the capsid into core dimers for 1.5 h on ice. The protein solution was then loaded onto a 1 L Sephacryl S300 column. After elution with buffer N core dimer containing fractions were identified by SDS-PAGE and subsequently pooled and dialyzed against 50 mM HEPES pH 7.5; 5 mM DTT. To improve the assembly capacity of the purified core dimers a second round of assembly and disassembly starting with the addition of 5 M NaCl and including the size exclusion chromatography steps described above was performed. From the last chromatography step core dimer containing fractions were pooled and stored in aliquots at concentrations between 1.5 to 2.0 mg/ml at −80° C.
Immediately before labelling the core protein was reduced by adding freshly prepared DTT in a final concentration of 20 mM. After 40 min incubation on ice storage buffer and DTT was removed using a Sephadex G-25 column (GE HealthCare, Frankfurt) and 50 mM HEPES, pH 7.5. For labelling 1.6 mg/ml core protein was incubated at 4° C. and darkness overnight with BODIPY-FL maleimide (Invitrogen, Karlsruhe) in a final concentration of 1 mM. After labelling the free dye was removed by an additional desalting step using a Sephadex G-25 column. Labelled core dimers were stored in aliquots at 4° C. In the dimeric state the fluorescence signal of the labelled core protein is high and is quenched during the assembly of the core dimers to high molecular capsid structures. The screening assay was performed in black 384 well microtiter plates in a total assay volume of 10 μl using 50 mM HEPES pH 7.5 and 1.0 to 2.0 μM labelled core protein. Each screening compound was added in 8 different concentrations using a 0.5 log-unit serial dilution starting at a final concentration of 100 μM, 31.6 μM or 10 μM. In any case the DMSO concentration over the entire microtiter plate was 0.5%. The assembly reaction was started by the injection of NaCl to a final concentration of […] which induces the assembly process to approximately 25% of the maximal quenched signal. 6 min after starting the reaction the fluorescence signal was measured using a Clariostar plate reader (BMG Labtech, Ortenberg) with an excitation of 477 nm and an emission of 525 nm. As 100% and 0% assembly control HEPES buffer containing 2.5 M and 0 M NaCl was used. Experiments were performed thrice in triplicates. EC50 values were calculated by non-linear regression analysis using the Graph Pad Prism 6 software (GraphPad Software, La Jolla, USA).

[1] = 144 h, HBV DNA in HepAD38 supernatant at day 6

Chain of HBV core protein (P03146 whole entry, looked up): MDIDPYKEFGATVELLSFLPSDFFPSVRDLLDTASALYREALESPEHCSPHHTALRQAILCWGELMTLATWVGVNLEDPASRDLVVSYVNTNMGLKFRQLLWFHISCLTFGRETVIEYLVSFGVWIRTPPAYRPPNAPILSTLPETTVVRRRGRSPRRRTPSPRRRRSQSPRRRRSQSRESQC

| SMILES | EC50 (HBV; [1]) [µM] | IC50 (HBV core protein) [µM] | EC50 (HBV; HePAD38, 144 h) [µM] |
| --- | --- | --- | --- |
| Cc1cc(F)cc2[nH]c(C(=O)N3CCc4nc(NC(=O)C5CCOCC5)sc4C3)cc12 [Example 321, N-[5-(6-fluoro-4-methyl-1H-indole-2-carbonyl)-4H,5H,6H,7H-[1,3]thiazolo[5,4-c]pyridin-2-yl]oxane-4-carboxamide] | < 1 | < 5 |  |
| O=C(c1cc2c(F)c(F)ccc2[nH]1)N1CCc2nc(NCC3(CO)CC3)sc2C1 [Example 252, [1-({[5-(4,5-difluoro-1H-indole-2-carbonyl)-4H,5H,6H,7H-[1,3]thiazolo[5,4-c]pyridin-2-yl]amino}methyl)cyclopropyl]methanol] | < 1 | < 5 |  |
| Nc1nc2c(s1)CN(C(=O)c1cc3ccc(Br)cc3[nH]1)CC2 [Example 92, 5-(6-bromo-1H-indole-2-carbonyl)-4H,5H,6H,7H-[1,3]thiazolo[5,4-c]pyridin-2-amine] | < 1 | < 5 |  |
| CC(C)(C)NC(=O)Nc1nc2c(s1)CN(C(=O)c1cc3ccccc3[nH]1)CC2 [Example 264, 3-tert-butyl-1-[5-(1H-indole-2-carbonyl)-4H,5H,6H,7H-[1,3]thiazolo[5,4-c]pyridin-2-yl]urea] | < 1 | 5 to 10 |  |
| CC(Nc1nc2c(s1)CN(C(=O)c1cc3ccccc3[nH]1)CC2)C1CCOC1 (stereo not drawn) [Example 247, 5-(1H-indole-2-carbonyl)-N-[1-(oxolan-3-yl)ethyl]-4H,5H,6H,7H-[1,3]thiazolo[5,4-c]pyridin-2-amine] | < 1 | < 5 |  |
| Nc1nc2c(s1)CN(C(=O)c1cc3ccc(Cl)c(Cl)c3[nH]1)CC2 [Example 148, 5-(6,7-dichloro-1H-indole-2-carbonyl)-4H,5H,6H,7H-[1,3]thiazolo[5,4-c]pyridin-2-amine] | 1 to 10 | < 5 |  |
| Nc1nc2c(s1)CN(C(=O)c1cc3cccc(Cl)c3[nH]1)CC2 [Example 154, 5-(7-chloro-1H-indole-2-carbonyl)-4H,5H,6H,7H-[1,3]thiazolo[5,4-c]pyridin-2-amine] | < 1 | < 5 |  |
| Nc1nc2c(s1)CN(C(=O)c1cc3c(Br)ccc(O)c3[nH]1)CC2 [Example 93, 2-{2-amino-4H,5H,6H,7H-[1,3]thiazolo[5,4-c]pyridine-5-carbonyl}-4-bromo-1H-indol-7-ol] | < 100 | < 100 |  |
| O=C(c1cc2c(F)cc(F)c(F)c2[nH]1)N1CCc2nc(NCC3CCOC3)sc2C1 (stereo not drawn) [Example 106, 5-(4,6,7-trifluoro-1H-indole-2-carbonyl)-N-[(oxolan-3-yl)methyl]-4H,5H,6H,7H-[1,3]thiazolo[5,4-c]pyridin-2-amine] | < 1 | < 5 |  |
| Nc1nc2c(s1)CN(C(=O)c1cc3c(C(F)F)cccc3[nH]1)CC2 [Example 293, 5-[4-(difluoromethyl)-1H-indole-2-carbonyl]-4H,5H,6H,7H-[1,3]thiazolo[5,4-c]pyridin-2-amine] | < 1 | < 5 |  |
| CC(O)c1cc(F)cc2[nH]c(C(=O)N3CCc4nc(NCC5(O)CCC5)sc4C3)cc12 (stereo not drawn) [Example 366, 1-[({5-[6-fluoro-4-(1-hydroxyethyl)-1H-indole-2-carbonyl]-4H,5H,6H,7H-[1,3]thiazolo[5,4-c]pyridin-2-yl}amino)methyl]cyclobutan-1-ol] | < 1 | < 100 |  |
| CC(C)(C)OC(=O)N1CCOCC1CNc1nc2c(s1)CN(C(=O)c1cc3ccccc3[nH]1)CC2 (stereo not drawn) [Example 238, tert-butyl 3-({[5-(1H-indole-2-carbonyl)-4H,5H,6H,7H-[1,3]thiazolo[5,4-c]pyridin-2-yl]amino}methyl)morpholine-4-carboxylate] | 1 to 10 | < 100 |  |
| CCC(C)(CO)CNc1nc2c(s1)CN(C(=O)c1cc3ccccc3[nH]1)CC2 (stereo not drawn) [Example 216, 2-({[5-(1H-indole-2-carbonyl)-4H,5H,6H,7H-[1,3]thiazolo[5,4-c]pyridin-2-yl]amino}methyl)-2-methylbutan-1-ol] | < 1 | 5 to 10 |  |
| O=C(c1cc2ccccc2[nH]1)N1CCc2nc(NCCCN3CCOCC3)sc2C1 [Example 73, 5-(1H-indole-2-carbonyl)-N-[3-(morpholin-4-yl)propyl]-4H,5H,6H,7H-[1,3]thiazolo[5,4-c]pyridin-2-amine] | < 1 | < 5 |  |
| O=C(c1cc2ccccc2[nH]1)N1CCc2nc(NCC3(c4ccccn4)CCC3)sc2C1 [Example 432, 5-(1H-indole-2-carbonyl)-N-{[1-(pyridin-2-yl)cyclobutyl]methyl}-4H,5H,6H,7H-[1,3]thiazolo[5,4-c]pyridin-2-amine] | < 1 | < 5 |  |
| COc1cccc2[nH]c(C(=O)N3CCc4nc(C)sc4C3)cc12 [Example 194, 4-methoxy-2-{2-methyl-4H,5H,6H,7H-[1,3]thiazolo[5,4-c]pyridine-5-carbonyl}-1H-indole] | < 100 | < 100 |  |
| CCc1cc(F)cc2[nH]c(C(=O)N3CCc4nc(NC[C@@H]5CCOC5)sc4C3)cc12 [Example 328, 5-(4-ethyl-6-fluoro-1H-indole-2-carbonyl)-N-{[(3S)-oxolan-3-yl]methyl}-4H,5H,6H,7H-[1,3]thiazolo[5,4-c]pyridin-2-amine] | < 1 | < 5 |  |
| Nc1nc2c(s1)CN(C(=O)c1cc3cccc(O)c3[nH]1)CC2 [Example 98, 2-{2-amino-4H,5H,6H,7H-[1,3]thiazolo[5,4-c]pyridine-5-carbonyl}-1H-indol-7-ol] | < 100 | < 100 |  |
| O=C(c1cc2ccccc2[nH]1)N1CCc2nc(NCC3CC3)sc2C1 [Example 96, N-(cyclopropylmethyl)-5-(1H-indole-2-carbonyl)-4H,5H,6H,7H-[1,3]thiazolo[5,4-c]pyridin-2-amine] | < 1 | < 5 |  |
| Cc1cc(F)cc2[nH]c(C(=O)N3CCc4nc(NCC5CCOC5)sc4C3)cc12 (stereo not drawn) [Example 120, 5-(6-fluoro-4-methyl-1H-indole-2-carbonyl)-N-[(oxolan-3-yl)methyl]-4H,5H,6H,7H-[1,3]thiazolo[5,4-c]pyridin-2-amine] | < 1 | < 5 |  |
| O=C(c1cc2c(Cl)c(F)ccc2[nH]1)N1CCc2nc(NCC3(CO)CC3)sc2C1 [Example 251, [1-({[5-(4-chloro-5-fluoro-1H-indole-2-carbonyl)-4H,5H,6H,7H-[1,3]thiazolo[5,4-c]pyridin-2-yl]amino}methyl)cyclopropyl]methanol] | < 1 | < 5 |  |
| O=C(c1cc2ccccc2[nH]1)N1CCc2nc(NCC3CCOC3)sc2C1 (stereo not drawn) [Example 91, 5-(1H-indole-2-carbonyl)-N-[(oxolan-3-yl)methyl]-4H,5H,6H,7H-[1,3]thiazolo[5,4-c]pyridin-2-amine] |  | < 5 | < 1 |
| CC(C)[C@H](N)C(=O)OCC1(CNc2nc3c(s2)CN(C(=O)c2cc4c(Cl)cc(F)cc4[nH]2)CC3)CC1 [Example 229, [1-({[5-(4-chloro-6-fluoro-1H-indole-2-carbonyl)-4H,5H,6H,7H-[1,3]thiazolo[5,4-c]pyridin-2-yl]amino}methyl)cyclopropyl]methyl (2S)-2-amino-3-methylbutanoate] | < 1 | < 5 |  |
| O=C(c1cc2c(F)c(F)ccc2[nH]1)N1CCc2nc(NCC3(O)CCC3)sc2C1 [Example 375, 1-({[5-(4,5-difluoro-1H-indole-2-carbonyl)-4H,5H,6H,7H-[1,3]thiazolo[5,4-c]pyridin-2-yl]amino}methyl)cyclobutan-1-ol] | < 1 | < 5 |  |

Source: patent publication US11267825B2 (AICURIS GMBH & CO. KG, priority 2017, dated 2022)
